Test results published in ChEMBL document CHEMBL4043234, “Anticancer efficacy of p-dodecylaminophenol against high-risk and refractory neuroblastoma cells in vitro and in vivo” (Bioorg Med Chem Lett, 2017).
Activity calls are given as the source filed them. No cut-off for these calls is given here.

Legend:
IMR-32 [1] = experiment: Growth inhibition of human IMR32 cells at 0.1 uM after 72 hrs by MTT assay relative to control; assay type: functional; conditions: IMR-32, 72 h, read-out: GI
SK-N-AS [2] = experiment: Growth inhibition of human SK-N-AS cells at 1 uM after 72 hrs by MTT assay relative to control; assay type: functional; conditions: read-out: GI
SK-N-AS [3] = experiment: Growth inhibition of human SK-N-AS cells at 1 uM after 24 hrs by MTT assay relative to control; assay type: functional; conditions: read-out: GI
IMR-32 [4] = experiment: Induction of apoptosis in human IMR32 cells assessed as decrease in Bcl-2 mRNA expression level at 4 uM after 24 hrs by real-time PCR method relative to control; assay type: functional; parameters: scale not given: the % may be the effect or the level left
SK-N-AS [5] = experiment: Cell cycle arrest in human SK-N-AS cells at 4 uM up to 72 hrs by propidium iodide staining based flow cytometry; assay type: functional
SK-N-AS [6] = experiment: Cell cycle arrest in human SK-N-AS cells assessed as accumulation at sub-G1 phase at 4 uM after 24 hrs by propidium iodide staining based flow cytometry; assay type: functional
SK-N-AS [7] = experiment: Induction of apoptosis in human SK-N-AS cells assessed as caspase-3 activity at 4 uM after 8 to 24 hrs by CPP32 based colorimetric assay; assay type: functional, cell-based
IMR-32 [8] = experiment: Reduction in N-myc mRNA expression level in human IMR32 cells at 4 uM after 8 hrs by real-time PCR method; assay type: functional, cell-based
IMR-32 [9] = experiment: Growth inhibition of human IMR32 cells at 0.4 uM after 72 hrs by MTT assay relative to control; assay type: functional; conditions: IMR-32, 72 h, read-out: GI
IMR-32 [10] = experiment: Growth inhibition of human IMR32 cells at 0.01 uM after 72 hrs by MTT assay relative to control; assay type: functional; conditions: IMR-32, 72 h, read-out: GI
IMR-32 [11] = experiment: Induction of apoptosis in human IMR32 cells assessed as decrease in Bcl-2 mRNA expression level at 4 uM after 8 hrs by real-time PCR method; assay type: functional, cell-based
IMR-32 [12] = experiment: Growth inhibition of human IMR32 cells at 0.1 uM after 24 hrs by MTT assay relative to control; assay type: functional; conditions: IMR-32, 24 h, read-out: GI
IMR-32 [13] = experiment: Reduction in N-myc mRNA expression level in human IMR32 cells at 4 uM after 24 hrs by real-time PCR method relative to control; assay type: functional; parameters: scale not given: the % may be the effect or the level left
SK-N-AS [14] = experiment: Growth inhibition of human SK-N-AS cells at 4 uM after 72 hrs by MTT assay relative to control; assay type: functional; conditions: read-out: GI
SK-N-AS [15] = experiment: Growth inhibition of human SK-N-AS cells at 4 uM after 24 hrs by MTT assay relative to control; assay type: functional; conditions: read-out: GI

Row | Compound | inhibition of growth at 0.1 µM (IMR-32 [1]) | inhibition of growth at 1 µM (SK-N-AS [2]) | inhibition of growth at 1 µM (SK-N-AS [3]) | Activity (IMR-32 [4]) | Activity (SK-N-AS [5]) | Activity (SK-N-AS [6]) | Activity (SK-N-AS [7]) | Activity (IMR-32 [8]) | inhibition of growth at 0.4 µM (IMR-32 [9]) | inhibition of growth at 0.01 µM (IMR-32 [10]) | Activity (IMR-32 [11]) | inhibition of growth at 0.1 µM (IMR-32 [12]) | Activity (IMR-32 [13]) | inhibition of growth at 4 µM (SK-N-AS [14]) | inhibition of growth at 4 µM (SK-N-AS [15])
1 | CC1=C(/C=C/C(C)=C/C=C/C(C)=C/C(=O)O)C(C)(C)CCC1 [TRETINOIN] | 60% | 3% | 0% | 67% | Active | Active | inactive | inactive | 65% | 47% | inactive | 9% | 13% | – | –
2 | CCCCCCCCCCCC(=O)Nc1ccc(O)cc1 | – | – | – | – | – | – | – | – | – | – | – | – | – | 24% | 22%
3 | CCCCCCCCCC(=O)Nc1ccc(O)cc1 | – | – | – | – | – | – | – | – | – | – | – | – | – | 13% | 5%
